Assay results published in ChEMBL document CHEMBL2074307, “Characterization of drug transport by the human multidrug resistance protein 3 (ABCC3)” (J Biol Chem, 2001).

How the values were obtained:
[1] = target: Multidrug resistance associated protein (Homo sapiens) (UniProt Q96QA9); assay: TP_TRANSPORTER: increase in Etoposide intracellular accumulation (Etoposide: 2 uM, Indomethacin: 500 uM) in MRP3-expressing fibroblast from kidney of mdr1a/1b and mrp1 (-/-) mouse; format: functional, cell-based; settings: mdr1a/1b (-/-) and mrp1 (-/-) fibroblasts
[2] = target: Multidrug resistance associated protein (Homo sapiens) (UniProt Q96QA9); assay: TP_TRANSPORTER: increase in Etoposide intracellular accumulation (Etoposide: 2 uM, Sulfinpyrazone: 2000 uM) in MRP3-expressing fibroblast from kidney of mdr1a/1b and mrp1 (-/-) mouse; format: functional, cell-based; settings: mdr1a/1b (-/-) and mrp1 (-/-) fibroblasts
[3] = target: Multidrug resistance associated protein (Homo sapiens) (UniProt Q96QA9); assay: (§1) TP_TRANSPORTER: uptake in membrane vesicle from MRP3-expressing Sf9 cells; format: functional, cell membranes
[4] = target: Multidrug resistance associated protein (Homo sapiens) (UniProt Q96QA9); assay: TP_TRANSPORTER: efflux in MRP3-expressing fibroblast from kidney of mdr1a/1b and mrp1 (-/-) mouse; format: functional, cell-based; settings: mdr1a/1b (-/-) and mrp1 (-/-) fibroblasts
[5] = substrate: COc1cc([C@@H]2c3cc4c(cc3[C@@H](O[C@@H]3O[C@@H]5CO[C@@H](C)O[C@H]5[C@H](O)[C@H]3O)[C@H]3COC(=O)[C@H]23)OCO4)cc(OC)c1O[C@@H]1O[C@H](C(=O)O)[C@@H](O)[C@H](O)[C@H]1O; assay: as §1; format: functional, cell membranes
[6] = substrate: C[C@]12CC[C@@H]3c4ccc(O)cc4CC[C@H]3[C@@H]1CC[C@@H]2O[C@@H]1O[C@H](C(=O)O)[C@@H](O)[C@H](O)[C@H]1O; assay: as §1; format: functional, cell membranes

COc1ccc2c(c1)c(CC(=O)O)c(C)n2C(=O)c1ccc(Cl)cc1
Activity [1]: inhibitor [[…] -> […] % of control (clone#38), 30 -> […] % of control (clone#77)]

O=C1C(CC[S+]([O-])c2ccccc2)C(=O)N(c2ccccc2)N1c1ccccc1 (stereo unspecified)
Activity [2]: inhibitor [18 -> 83 % of control (clone#38), 30 -> 77 % of control (clone#77)]

N[C@@H](CCC(=O)N[C@@H](CS)C(=O)NCC(=O)O)C(=O)O
Activity [3]: is not a substrate [-]

COc1cc([C@@H]2c3cc4c(cc3[C@@H](O[C@@H]3O[C@@H]5CO[C@@H](C)O[C@H]5[C@H](O)[C@H]3O)[C@H]3COC(=O)[C@H]23)OCO4)cc(OC)c1O
Activity [4]: substrate [+]

B1: Multidrug resistance associated protein (Homo sapiens), Q96QA9 (protein)
chain: MDALCGSGELGSKFWDSNLSVHTENPDLTPCFQNSLLAWVPCIYLWVALPCYLLYLRHHCRGYIILSHLSKLKMVLGVLLWCVSWADLFYSFHGLVHGRAPAPVFFVTPLVVGVTMLLATLLIQYERLQGVQSSGVLIIFWFLCVVCAIVPFRSKILLAKAEGEISDPFRFTTFYIHFALVLSALILACFREKPPFFSAKNVDPNPYPETSAGFLSRLFFWWFTKMAIYGYRHPLEEKDLWSLKEEDRSQMVVQQLLEAWRKQEKQTARHKASAAPGKNASGEDEVLLGARPRPRKPSFLKALLATFGSSFLISACFKLIQDLLSFINPQLLSILIRFISNPMAPSWWGFLVAGLMFLCSMMQSLILQHYYHYIFVTGVKFRTGIMGVIYRKALVITNSVKRASTVGEIVNLMSVDAQRFMDLAPFLNLLWSAPLQIILAIYFLWQNLGPSVLAGVAFMVLLIPLNGAVAVKMRAFQVKQMKLKDSRIKLMSEILNGIKVLKLYAWEPSFLKQVEGIRQGELQLLRTAAYLHTTTTFTWMCSPFLVTLITLWVYVYVDPNNVLDAEKAFVSVSLFNILRLPLNMLPQLISNLTQASVSLKRIQQFLSQEELDPQSVERKTISPGYAITIHSGTFTWAQDLPPTLHSLDIQVPKGALVAVVGPVGCGKSSLVSALLGEMEKLEGKVHMKGSVAYVPQQAWIQNCTLQENVLFGKALNPKRYQQTLEACALLADLEMLPGGDQTEIGEKGINLSGGQRQRVSLARAVYSDADIFLLDDPLSAVDSHVAKHIFDHVIGPEGVLAGKTRVLVTHGISFLPQTDFIIVLADGQVSEMGPYPALLQRNGSFANFLCNYAPDEDQGHLEDSWTALEGAEDKEALLIEDTLSNHTDLTDNDPVTYVVQKQFMRQLSALSSDGEGQGRPVPRRHLGPSEKVQVTEAKADGALTQEEKAAIGTVELSVFWDYAKAVGLCTTLAICLLYVGQSAAAIGANVWLSAWTNDAMADSRQNNTSLRLGVYAALGILQGFLVMLAAMAMAAGGIQAARVLHQALLHNKIRSPQSFFDTTPSGRILNCFSKDIYVVDEVLAPVILMLLNSFFNAISTLVVIMASTPLFTVVILPLAVLYTLVQRFYAATSRQLKRLESVSRSPIYSHFSETVTGASVIRAYNRSRDFEIISDTKVDANQRSCYPYIISNRWLSIGVEFVGNCVVLFAALFAVIGRSSLNPGLVGLSVSYSLQVTFALNWMIRMMSDLESNIVAVERVKEYSKTETEAPWVVEGSRPPEGWPPRGEVEFRNYSVRYRPGLDLVLRDLSLHVHGGEKVGIVGRTGAGKSSMTLCLFRILEAAKGEIRIDGLNVADIGDPILFSGTLRMNLDPFGSYSEEDIWWALELSHLHTFVSSQPAGLDFQCSEGGENLSVGQRQLVCLARALLRKSRILVLDEATAAIDLETDNLIQATIRTQFDTCTVLTIAHRLNTIMDYTRVLVLDKGVVAEFDSPANLIAARGIFYGMARDAGLA
Km [5]: 11.4 µM
Km [6]: 17.7 µM
